Measured values published in patent US10428083B2, “Heterocyclylmethyl-thienouracile as antagonists of the adenosine-A2B-receptor” (BAYER PHARMA AKTIENGESELLSCHAFT, priority 2015, dated 2019).

Molecular target: human adenosine A2b receptor (Homo sapiens (Human), UniProt P29275)
Experiment: Cellular in vitro reporter gene test for A2b receptor activity (CHO-K1, CRE-luciferase, NECA stimulation)
Assay type: cell-based
Conditions: recombinant CHO-K1 cell line, CRE-luciferase reporter, antagonism of EC50 concentration of NECA; in some cases means of several determinations, rounded to two significant figures; read-out: A2b receptor IC50
How it was run: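 CHO-K1 cells with CRE-driven luciferase; antagonists co-incubated with NECA at its EC50, determined in a pre-experiment on each test day. Luciferase read by luminescence 3 h after NECA addition.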

human adenosine A2b receptor, sequence (P29275 whole entry): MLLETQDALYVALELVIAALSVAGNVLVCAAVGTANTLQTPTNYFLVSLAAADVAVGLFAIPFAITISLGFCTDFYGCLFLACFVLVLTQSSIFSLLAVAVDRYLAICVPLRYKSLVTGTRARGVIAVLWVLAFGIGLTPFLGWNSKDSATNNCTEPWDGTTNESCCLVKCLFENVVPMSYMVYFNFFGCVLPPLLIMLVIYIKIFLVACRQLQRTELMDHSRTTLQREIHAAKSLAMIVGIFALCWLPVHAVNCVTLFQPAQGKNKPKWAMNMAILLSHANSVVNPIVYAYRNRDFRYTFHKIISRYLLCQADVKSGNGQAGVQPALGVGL

| IC50 [nM] | Compound |
| --- | --- |
| 3.6 | COC(C)Cn1c(=O)c2c(C)c(CN3CCNC3=NC#N)sc2n(CCC(F)(F)F)c1=O (single isomer, unassigned) [Example 455, [1-{[3-(2-Methoxypropyl)-5-methyl-2,4-dioxo-1-(3,3,3-trifluoropropyl)-1,2,3,4-tetrahydrothieno[2,3-d]pyrimidin-6-yl]methyl}imidazolidin-2-ylidene]cyanamide] |
| 5.5 | Cc1c(CN2CCNC2=S)sc2c1c(=O)n(CC(F)(F)F)c(=O)n2CC1COC1 [Example 158, 5-Methyl-1-(oxetan-3-ylmethyl)-6-[(2-thioxoimidazolidin-1-yl)methyl]-3-(2,2,2-trifluoroethyl)thieno[2,3-d]pyrimidine-2,4(1H,3H)-dione] |
| 4.9 | COC(=O)N=C1NCCN1Cc1sc2c(c1C)c(=O)n(C(C)C)c(=O)n2CC1CCCO1 (single isomer, unassigned) [Example 459, Methyl [1-{[3-isopropyl-5-methyl-2,4-dioxo-1-(tetrahydrofuran-2-ylmethyl)-1,2,3,4-tetrahydrothieno[2,3-d]pyrimidin-6-yl]methyl}imidazolidin-2-ylidene]carbamate] |
| 18 | COCCn1c(=O)n(CC(F)(F)F)c(=O)c2c(C)c(Cn3cc[nH]c3=O)sc21 [Example 340, 1-(2-Methoxyethyl)-5-methyl-6-[(2-oxo-2,3-dihydro-1H-imidazol-1-yl)methyl]-3-(2,2,2-trifluoroethyl)thieno[2,3-d]pyrimidine-2,4(1H,3H)-dione] |
| 9.4 | COCCn1c(=O)n(CC(F)F)c(=O)c2c(C)c(CN3CCNC3=O)sc21 [Example 96, 3-(2,2-Difluoroethyl)-1-(2-methoxyethyl)-5-methyl-6-[(2-oxoimidazolidin-1-yl)methyl]thieno[2,3-d]pyrimidine-2,4(1H,3H)-dione] |
| 79 | C=CCn1cnn(Cc2sc3c(c2C)c(=O)n(CC)c(=O)n3CCC(F)(F)F)c1=O [Example 110, 6-[(4-Allyl-5-oxo-4,5-dihydro-H-1,2,4-triazol-1-yl)methyl]-3-ethyl-5-methyl-1-(3,3,3-trifluoropropyl)thieno[2,3-d]pyrimidine-2,4(1H,3H)-dione] |
| 52 | Cc1c(CN2CCNC(=O)C2=O)sc2c1c(=O)n(CC(C)(C)C)c(=O)n2CC1CCCO1 (single isomer, unassigned) [Example 485, 3-(2,2-Dimethylpropyl)-6-[(2,3-dioxopiperazin-1-yl)methyl]-5-methyl-1-(tetrahydrofuran-2-ylmethyl)thieno[2,3-d]pyrimidine-2,4(1H,3H)-dione] |
| 370 | CCn1c(=O)c2c(C)c(CN3CCNC3=O)sc2n(CCS(C)(=O)=O)c1=O [Example 310, 3-Ethyl-5-methyl-1-[2-(methylsulphonyl)ethyl]-6-[(2-oxoimidazolidin-1-yl)methyl]thieno[2,3-d]pyrimidine-2,4(1H,3H)-dione] |
| 33 | CCn1c(=O)c2c(C)c(CN3CCNC3=NC#N)sc2n(CC2CCO2)c1=O (single isomer, unassigned) [Example 258, [1-{[3-Ethyl-5-methyl-1-(oxetan-2-ylmethyl)-2,4-dioxo-1,2,3,4-tetrahydrothieno[2,3-d]pyrimidin-6-yl]methyl}imidazolidin-2-ylidene]cyanamide] |
| 42 | Cc1c(Cn2nc[nH]c2=O)sc2c1c(=O)n(C(C)C)c(=O)n2CC1CCCO1 (single isomer, unassigned) [Example 425, 3-Isopropyl-5-methyl-6-[(5-oxo-4,5-dihydro-1H-1,2,4-triazol-1-yl)methyl]-1-(tetrahydrofuran-2-ylmethyl)thieno[2,3-d]pyrimidine-2,4(1H,3H)-dione] |
| 11 | Cc1c(CN2CCNC2=O)sc2c1c(=O)n(CC(C)C)c(=O)n2C [Example 91, 3-Isobutyl-1,5-dimethyl-6-[(2-oxoimidazolidin-1-yl)methyl]thieno[2,3-d]pyrimidine-2,4(1H,3H)-dione] |
| 11 | CCOCCn1c(=O)n(CC)c(=O)c2c(C)c(CN3CCNC3=S)sc21 [Example 32, 1-(2-Ethoxyethyl)-3-ethyl-5-methyl-6-[(2-thioxoimidazolidin-1-yl)methyl]thieno[2,3-d]pyrimidine-2,4(1H,3H)-dione] |
| 3 | Cc1c(CN2CCNC2=S)sc2c1c(=O)n(CC(C)C)c(=O)n2CC(F)F [Example 143] |
| 18 | COCCn1c(=O)n(C(C)C(F)(F)F)c(=O)c2c(C)c(CN3CCNC3=NC(=O)OC)sc21 (racemic) [Example 471, Methyl [1-{[1-(2-methoxyethyl)-5-methyl-2,4-dioxo-3-(1,1,1-trifluoropropan-2-yl)-1,2,3,4-tetrahydrothieno[2,3-d]pyrimidin-6-yl]methyl}imidazolidin-2-ylidene]carbamate] |
| 9.8 | CCn1c(=O)c2c(C)c(CN3CCNC3=O)sc2n(CC2CCCO2)c1=O (single isomer, unassigned; enantiomer 1) [Example 69, 3-Ethyl-5-methyl-6-[(2-oxoimidazolidin-1-yl)methyl]-1-(tetrahydrofuran-2-ylmethyl)thieno[2,3-d]pyrimidine-2,4(1H,3H)-dione (Enantiomer 1)] |
| 14 | Cc1c(CN2CCNC2=NC#N)sc2c1c(=O)n(C(C)C)c(=O)n2CC1CCO1 (single isomer, unassigned) [Example 265, [1-{[3-Isopropyl-5-methyl-1-(oxetan-2-ylmethyl)-2,4-dioxo-1,2,3,4-tetrahydrothieno[2,3-d]pyrimidin-6-yl]methyl}imidazolidin-2-ylidene]cyanamide] |
| 6.6 | COC(=O)N=C1NCCN1Cc1sc2c(c1C)c(=O)n(CC(F)(F)F)c(=O)n2CC1CCO1 (single isomer, unassigned) [Example 466, Methyl [1-{[5-methyl-1-(oxetan-2-ylmethyl)-2,4-dioxo-3-(2,2,2-trifluoroethyl)-1,2,3,4-tetrahydrothieno[2,3-d]pyrimidin-6-yl]methyl}imidazolidin-2-ylidene]carbamate] |
| 29 | CCn1c(=O)c2c(C)c(CN3CCNC3=O)sc2n(CC2CCO2)c1=O (single isomer, unassigned; enantiomer 2) [Example 67, 3-Ethyl-5-methyl-1-(oxetan-2-ylmethyl)-6-[(2-oxoimidazolidin-1-yl)methyl]thieno[2,3-d]pyrimidine-2,4(1H,3H)-dione (Enantiomer 2)] |
| 16 | CCn1c(=O)c2c(C(F)(F)F)c(CN3CCOC3=O)sc2n(CCC(F)(F)F)c1=O [Example 23, 3-Ethyl-6-[(2-oxo-1,3-oxazolidin-3-yl)methyl]-5-(trifluoromethyl)-1-(3,3,3-trifluoropropyl)thieno[2,3-d]pyrimidine-2,4(1H,3H)-dione] |
| 100 | COCCn1c(=O)c2c(C)c(CN3CCNC(=O)C3=O)sc2n(CC2CCO2)c1=O (single isomer, unassigned) [Example 402, 6-[(2,3-Dioxopiperazin-1-yl)methyl]-3-(2-methoxyethyl)-5-methyl-1-(oxetan-2-ylmethyl)thieno[2,3-d]pyrimidine-2,4(1H,3H)-dione] |
| 8.8 | CCn1c(=O)c2c(C)c(CN3C(=O)OCC3(C)C)sc2n(CCC(F)(F)F)c1=O [Example 24, 6-[(4,4-Dimethyl-2-oxo-1,3-oxazolidin-3-yl)methyl]-3-ethyl-5-methyl-1-(3,3,3-trifluoropropyl)thieno[2,3-d]pyrimidine-2,4(1H,3H)-dione] |
| 93 | CCOCCn1c(=O)n(CCOC)c(=O)c2c(C)c(CN3CCNC3=O)sc21 [Example 232, 1-(2-Ethoxyethyl)-3-(2-methoxyethyl)-5-methyl-6-[(2-oxoimidazolidin-1-yl)methyl]thieno[2,3-d]pyrimidine-2,4(1H,3H)-dione] |
| 10 | CCn1c(=O)c2c(C)c(CN3CCNC3=S)sc2n(CC(F)F)c1=O [Example 137, 1-(2,2-Difluoroethyl)-3-ethyl-5-methyl-6-[(2-thioxoimidazolidin-1-yl)methyl]thieno[2,3-d]pyrimidine-2,4(1H,3H)-dione] |
| 17 | COCCn1c(=O)n(CC(C)OC)c(=O)c2c(C)c(CN3CCNC3=O)sc21 (racemic) [Example 99, 1-(2-Methoxyethyl)-3-(2-methoxypropyl)-5-methyl-6-[(2-oxoimidazolidin-1-yl)methyl]thieno[2,3-d]pyrimidine-2,4(1H,3H)-dione] |
| 8.9 | Cc1c(CN2CCNC2=O)sc2c1c(=O)n(CC(C)C)c(=O)n2CC1CCCO1 (single isomer, unassigned) [Example 198, 3-Isobutyl-5-methyl-6-[(2-oxoimidazolidin-1-yl)methyl]-1-(tetrahydrofuran-2-ylmethyl)thieno[2,3-d]pyrimidine-2,4(1H,3H)-dione] |
| 38 | CCn1c(=O)c2c(C)c(CN3CCNC3=S)sc2n(CC2CCCCO2)c1=O (racemic) [Example 36, 3-Ethyl-5-methyl-1-(tetrahydro-2H-pyran-2-ylmethyl)-6-[(2-thioxoimidazolidin-1-yl)methyl]thieno[2,3-d]pyrimidine-2,4(1H,3H)-dione (racemate)] |
| 60 | Cc1c(CN2CCNC2=O)sc2c1c(=O)n(C(C)C)c(=O)n2CC1CCO1 (single isomer, unassigned) [Example 185, 3-Isopropyl-5-methyl-1-(oxetan-2-ylmethyl)-6-[(2-oxoimidazolidin-1-yl)methyl]thieno[2,3-d]pyrimidine-2,4(1H,3H)-dione] |
| 14 | CCOCCn1c(=O)n(CC(C)C)c(=O)c2c(C)c(CN3CCNC3=S)sc21 [Example 145, 1-(2-Ethoxyetyl)-3-isobutyl-5-methyl-6-[(2-thioxoimidazolidin-1-yl)methyl]thieno[2,3-d]pyrimidine-2,4(1H,3H)-dione] |
| 43 | Cc1c(CN2CCNC2=O)sc2c1c(=O)n(CC(F)(F)F)c(=O)n2CC1CCO1 (single isomer, unassigned) [Example 207, 5-Methyl-1-(oxetan-2-ylmethyl)-6-[(2-oxoimidazolidin-1-yl)methyl]-3-(2,2,2-trifluoroethyl)thieno[2,3-d]pyrimidine-2,4(1H,3H)-dione] |
